Experimental data published in patent publication US12465602B2, “Use of an opioid molecule for treating dry eye and eyes suffering from allergies” (H4 ORPHAN PHARMA, priority 2019, dated 2025).
Like-named read-outs stand apart in the source and are kept apart here.

Assays:
basophils = assay: Basophil activation test (Flow CAST kit), CD63 expression by flow cytometry after anti-FcεRI stimulation; format: cell-based, human; conditions: noscapine 10 μM, whole blood, FIG. 9
From the text: These two cells intervene in the IgE-dependent allergic reaction; they express the high-affinity IgE receptor. Nevertheless, the mediators released by these cells during this activation are different for some of them. Moreover, basophils and especially mast cells intervene in innate immunity. Thus, basophils and mast cells have many characteristics in common and more particularly, the secretion of IL4 and IL13 which are known to induce the stimulation of collagen synthesis and the proliferation of fibroblasts responsible for fibrosis. Fibrosis can affect the Meibomian glands in dry eye and allergic eye. […]
It is designed for the in vitro diagnosis of the expression of the CD63 marker as a surface marker of activated basophils. The test is carried out on whole blood; flow cytometry allows quantifying the expression of CD63 at the surface of activated basophils. […]
This granularity may be due to irregularities inside or at the surface of the cells or to the density of the organelles that compose it (acess.ens-lyon.fr). Afterwards, fluorescence markers allow better characterising the different cell subpopulations (these markers are coupled with the differentiation clusters). […] The latter has been analysed in order to observe the expected results in the absence of stimulation and therefore of degranulation. […]

[1] = cited from earlier work
non-mutated CFTR = target: T1, non-mutated CFTR (Homo sapiens, UniProt P13569); assay: Ussing chamber short-circuit current on lacrimal gland epithelial cells expressing non-mutated CFTR; format: cell-based
T1 construct: endogenous in cells; host or cells: human glandular (lacrimal gland) epithelial cells, polarised on Snapwell filters
T1 sequence (P13569 whole entry, change not shown): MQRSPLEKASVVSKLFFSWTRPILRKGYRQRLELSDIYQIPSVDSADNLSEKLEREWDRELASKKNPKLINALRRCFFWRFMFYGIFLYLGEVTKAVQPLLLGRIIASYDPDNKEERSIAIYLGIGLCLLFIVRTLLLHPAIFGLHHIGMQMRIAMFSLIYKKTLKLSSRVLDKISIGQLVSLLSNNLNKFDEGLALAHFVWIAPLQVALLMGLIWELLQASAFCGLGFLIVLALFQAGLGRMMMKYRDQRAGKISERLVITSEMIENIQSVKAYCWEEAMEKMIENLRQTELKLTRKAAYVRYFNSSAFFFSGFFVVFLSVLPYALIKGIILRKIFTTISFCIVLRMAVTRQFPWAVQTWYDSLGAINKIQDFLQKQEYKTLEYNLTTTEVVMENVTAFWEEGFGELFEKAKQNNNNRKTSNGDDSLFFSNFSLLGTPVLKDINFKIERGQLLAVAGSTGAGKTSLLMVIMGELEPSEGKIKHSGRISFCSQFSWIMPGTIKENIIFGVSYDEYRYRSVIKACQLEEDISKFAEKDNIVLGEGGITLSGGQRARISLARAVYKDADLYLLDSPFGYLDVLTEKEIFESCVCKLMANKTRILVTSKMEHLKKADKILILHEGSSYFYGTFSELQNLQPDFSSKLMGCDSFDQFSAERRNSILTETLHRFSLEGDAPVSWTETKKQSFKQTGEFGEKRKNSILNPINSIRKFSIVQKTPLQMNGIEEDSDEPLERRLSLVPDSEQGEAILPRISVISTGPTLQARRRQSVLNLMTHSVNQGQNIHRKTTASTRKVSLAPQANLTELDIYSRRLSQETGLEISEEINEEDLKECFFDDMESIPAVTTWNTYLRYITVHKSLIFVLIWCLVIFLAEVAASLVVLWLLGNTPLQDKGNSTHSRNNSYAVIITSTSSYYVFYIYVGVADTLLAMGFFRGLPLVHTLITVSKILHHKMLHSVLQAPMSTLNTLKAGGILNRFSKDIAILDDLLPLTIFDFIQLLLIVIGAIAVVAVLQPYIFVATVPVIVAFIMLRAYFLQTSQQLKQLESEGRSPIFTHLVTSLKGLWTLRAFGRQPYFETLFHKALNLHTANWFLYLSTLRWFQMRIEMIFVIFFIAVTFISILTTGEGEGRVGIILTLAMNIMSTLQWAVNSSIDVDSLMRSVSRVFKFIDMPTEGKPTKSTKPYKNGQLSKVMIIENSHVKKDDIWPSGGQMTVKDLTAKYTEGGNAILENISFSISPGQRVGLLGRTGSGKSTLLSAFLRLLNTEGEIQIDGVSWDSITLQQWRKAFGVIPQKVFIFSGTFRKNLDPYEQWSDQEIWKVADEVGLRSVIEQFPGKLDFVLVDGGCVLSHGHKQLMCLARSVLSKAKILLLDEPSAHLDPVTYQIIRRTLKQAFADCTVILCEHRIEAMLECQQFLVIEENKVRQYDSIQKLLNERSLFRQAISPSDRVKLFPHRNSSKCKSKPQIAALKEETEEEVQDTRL
From the text: To study this action on the modulation of CFTR, the inventors have used the Ussing chamber method, invented by the Danish Hans H. Ussing at the end of the 1950s. This technique allows studying ionic exchanges through an epithelium, as they allow maintaining the tissue of interest in survival for a few hours under controlled conditions of temperature and medium. The positioning of the tissue between two half-chambers allows defining an apical compartment (corresponding to the lumen of the organ) and a basolateral compartment (corresponding to the blood compartment) and studying the exchanges between these two compartments via the tissue.
This technique is commonly used and it is particularly well-suited for a pharmacological approach of ionic transports and to search for molecules of therapeutic interest in the context of ionic secretions from epithelial cells. It consists in measuring the transepithelial current (called short-circuit and denoted Ise). Ise is expressed in amperes relative to the unit surface area of the epithelium (Ise in μA/cm2). The cells are cultured on a porous filter for 10 to 15 days at the liquid-liquid then air-liquid interface in order to mimic conditions close to in vivo. The transepithelial resistance is regularly measured during the culture. The higher this resistance (several hundred ohms), the more the epithelial tissue is contiguous, polarised and therefore tight. At the Air (apical side)—Liquid (basolateral side) interface, the epithelial cells polarise and form a tight mat that can be studied with the Ussing chamber technique. We have used a system with 6 vats from Physiologie Instrument@ enabling 6 experiments in parallel.
The inventors have prepared a 100 μM stock solution in DMSO.

Structure (SMILES)	inhibition of basophil degranulation caused by anti-FcεRI antibody (CD63+ CCR3+) (basophils)	solubility in organic solvents ([1]; benzene and acetone)	solubility in water ([1]; water)	short-circuit current differential after addition of noscapine, apical side (non-mutated CFTR; 10 μM noscapine, non-mutated epithelial cells, apical side, switches from 16)	short-circuit current differential after addition of noscapine, second series (non-mutated CFTR; 10 μM noscapine, non-mutated lacrimal gland epithelial cells, printed apical side, switches from 6.5)	EC50 (non-mutated CFTR; apical pole, FIG. 2, read-out: EC50 activity for the apical pole) [µM]	EC50 (non-mutated CFTR; basal pole, FIG. 3, read-out: EC50 for the basal pole) [µM]	effect of Inh172 on cellular potential (non-mutated CFTR; Inh172 10 μM, first series (apical side))	effect of Inh172 on cellular potential, second series (non-mutated CFTR; Inh172 10 μM, lacrimal gland epithelial cells)
COc1ccc2c(c1OC)C(=O)O[C@@H]2[C@H]1c2c(cc3c(c2OC)OCO3)CCN1C [noscapine, (3S)-6,7-dimethoxy-3-[(5R)-4-methoxy-6-methyl-7,8-dihydro-5H-[1,3]dioxolo[4,5-g]isoquinolin-5-yl]-3H-2-benzofuran-1-one]	blocks the activation of basophil degranulation	soluble in benzene and acetone	Insoluble in water	more than 20 μA/cm2	more than 7.5 μA/cm2	3.42	4.87		
O=C(O)c1ccc(C=C2SC(=S)N(c3cccc(C(F)(F)F)c3)C2=O)cc1 [Inh172]								completely blocks the cellular potential	completely blocks the cellular potential
